Measurements taken from patent US9017730B2 (The Regents of the University of California, priority 2010, dated 2015).

Experiments:
S. aureus 6538 [1] = assay: rodent model of prevention of wound infection (subcutaneous polypropylene mesh); conditions: solution
Method: (§2) In this model, a mesh pre-soaked with phosphate buffered saline (PBS) or K180L20 was inserted subcutaneously into the dorsal cervical region of Sprague-Dawley rats, followed by 10^6 S. aureus or P. aeruginosa. Additional PBS or K180L20 was added, wounds closed, and animals returned to cages for 48 hr.

[2] = critical aggregation concentration (CAC) via pyrene fluorescence; format: physicochemical; conditions: in water
Method: Polypeptide solutions (2 mL) were dispersed in water at a range of concentrations (2.0×10^−3 to 2.0×10^−12 M). A stock pyrene solution was made by dissolving pyrene in acetone (6.0×10^−2 M). Next, an appropriate amount of the pyrene stock solution was added to give a final concentration of 12×10^−7 M in water and the acetone was evaporated off. To each polypeptide solution, 2.0 mL of the aqueous stock pyrene solution was added to afford a final concentration of 6.0×10^−7 M. Then, each solution was allowed to equilibrate overnight prior to measurements. To record fluorescence spectra, 3.0 mL of each polypeptide solution was added to a 4.0 mL polystyrene covet. The excitation spectra were recorded within a range of 300-360 nm at an emission wavelength of 390 nm. All spectra were run with an integration time of 1 sec/0.5 nm. The ratio of the intensities of two peaks I338/I333 was plotted as a function of polypeptide concentration (M) for each sample. The CACs were determined as the intersection of the extrapolated linear fits of the plot.

[3] = pig, in vivo
[4] = test system: P. aeruginosa (Clinical Pig Isolate); assay: rodent model of prevention of wound infection (subcutaneous polypropylene mesh); conditions: solution
Method: as §2

S. aureus = assay: in vitro antimicrobial activity, incubated with bacteria for 30 min prior to plating for growth; format: cell-based
Method: (§1) K180L20 was incubated with bacteria for 30 min prior to plating for growth;

E. coli = assay: as above; format: cell-based
Method: as §1

P. aeruginosa = assay: as above; format: cell-based
Method: as §1

S. epidermidis = assay: as above; format: cell-based; conditions: FIG. 4
Method: as §1

S. aureus 6538 [5] = assay: porcine infection prevention open-wound model; conditions: solution (10 mg/mL) applied prior to inoculation
Method: Full-thickness 1 cm diameter wounds were made in the dorsal and lateral thorax of a 25-35 kg Yorkshire-cross pig. K180L20 hydrogel (or control buffer) was applied, and after four hr, wounds were inoculated with S. aureus. Wounds were assessed after 48 hr for bacterial counts by standard microbiology methods.

[6] = inflammation by histology in rodent infection model; format: in vivo, rats; conditions: rodent open wounds, copolypeptide in solution, versus control treatments
[7] = pig, in vivo; remark: listed apart in the source
microbes = assay: in vitro antimicrobial activity, organism not given; format: cell-based; conditions: neutral pH (~7)

Substance	reduction in bacterial population, S. aureus (S. aureus 6538 [1]; 20 μg/ml of copolypeptide)	reduction in bacterial population, S. aureus (S. aureus 6538 [1]; 2 mg/ml)	critical aggregation concentration (CAC) [2] [µM]	mononuclear inflammation, edema, or hemorrhage versus controls [3]	neutrophilic inflammation, severity versus controls [3]	serocellular exudates, severity versus controls [3]	reduction in bacterial population, P. aeruginosa ([4]; 20 μg/ml of copolypeptide)	reduction in bacterial population, P. aeruginosa ([4]; 2 mg/ml)	reduction of bacteria, S. aureus (S. aureus; 10 μg/ml)	antimicrobial activity against S. aureus (S. aureus; FIG. 4)	reduction of bacteria, E. coli (E. coli; 10 μg/ml)	antimicrobial activity against E. coli (E. coli; FIG. 4)	reduction of bacteria, P. aeruginosa (P. aeruginosa; 10 μg/ml)	antimicrobial activity against P. aeruginosa (P. aeruginosa; FIG. 4)	antimicrobial activity against S. epidermidis (S. epidermidis)	prevention of microbial infection, S. aureus (S. aureus 6538 [5])	inflammation, histopathological evidence [6]	inflammation, necrosis, and epithelial coverage versus control-treated wounds [7]	antimicrobial activity at neutral pH (microbes)
Poly(L-Lysine.HCl)55-b-poly(rac-Leucine)20 [K55(rac-L)20]	1-3 log	complete (or near complete) reduction	8.1	No differences	minimally less severe	mildly	1-3 log	complete (or near complete) reduction	reduction of bacteria	substantial antimicrobial activity	reduction of bacteria	substantial antimicrobial activity	reduction of bacteria	substantial antimicrobial activity	substantial antimicrobial activity	fully prevented microbial infection	at or below the level of control treatments	similar	
Poly(L-glutamate-Na)54-b-poly(rac-leucine)20 [E54(rac-L)20]																			low antimicrobial activity
